Molecules are shown by their SMILES. Values after ≈ are worked out from the molar mass of the structure shown. Values joined by “and” are separate entries in the source; they are usually repeats but may differ in a detail not shown here. Equal values may be shown once. Read-outs that look alike come from different tables or passages of the source.

One compound from patent US9352015B2, “Antimicrobial peptides” (priority 2009, dated 2016) can be followed below.

One data set has as its system Pseudomonas aeruginosa. Particulars: for MIC PAO 1: 37° C., 24 h, strain PAO1; for MIC GM (geometric mean of the MIC values): six P. aeruginosa strains; for MIC CP 204: strain CP204; for MIC M 2: strain M2; for MIC PA 14: strain PA14; for MIC PAK: strain PAK; for MIC WR 5: strain WR5.
Data set [1] can be described thus: RP-HPLC retention as measure of overall peptide hydrophobicity. Type of data set: physicochemical. As to conditions: pH 2, room temperature. As to the method:
Crude and purified peptides were analyzed on an Agilent 1100 series liquid chromatograph (Little Falls, Del.). Runs were performed on a Zorbax 300 SB-C8 column (150×2.1 mm I.D.; 5 μm particle size, 300 Å pore size) from Agilent Technologies using linear AB gradient (1% acetonitrile/min) and a flow rate of 0.25 ml/min, where eluant A was 0.2% aqueous TFA, pH 2 and eluant B was 0.2% TFA in acetonitrile.

Consider `CC[C@@H](C)[C@@H](NC(=O)[C@@H](C)NC(=O)[C@@H](CCCCN)NC(=O)[C@@H](CC(C)C)NC(=O)[C@@H](C)NC(=O)[C@H](NC(=O)[C@@H](Cc1c[nH]cn1)NC(=O)[C@@H](CC(C)C)NC(=O)[C@H](NC(=O)[C@H](NC(=O)[C@@H](CCCCN)NC(=O)[C@@H](CCCCN)NC(=O)[C@@H](C)NC(=O)[C@@H](CO)NC(=O)[C@@H](CCCCN)NC(=O)[C@@H](Cc1ccccc1)NC(=O)[C@H](NC(=O)[C@@H](CCCCN)NC(=O)[C@@H](CC(C)C)NC(=O)[C@@H](Cc1ccccc1)NC(=O)[C@@H](CO)NC(=O)[C@@H](CCCCN)NC(=O)[C@@H](Cc1c[nH]c2ccccc12)NC(=O)[C@@H](CCCCN)NC(C)=O)[C@H](C)O)[C@H](C)O)C(C)C)[C@H](C)O)C(=O)N[C@H](CO)C(=O)N[C@H](CO)C(N)=O` [Peptide D1, Ac-KWKSFLKTFKSAKKTVLHTALKAISS-amide], for which, in the data set on Pseudomonas aeruginosa (Brain Heart Infusion medium), the “MIC PAO 1” value is 31.3 µg/mL (≈ 10.5 µM), the “MIC GM (geometric mean of the MIC values)” value was found to be 31.2 µg/mL, the “MIC CP 204” value is 62.5 µg/mL (≈ 20.9 µM) and the “MIC M 2” value stood at 62.5 µg/mL (≈ 20.9 µM). In the data set with Pseudomonas aeruginosa (Brain Heart Infusion medium), the “MIC PA 14” value worked out at 15.6 µg/mL (≈ 5.22 µM), the “MIC PAK” value was found to be 31.3 µg/mL (≈ 10.5 µM) and the “MIC WR 5” value came out at 15.6 µg/mL (≈ 5.22 µM). In the data set with Pseudomonas aeruginosa (Mueller Hinton medium), the “MIC PAO 1” value came to 7.8 µg/mL (≈ 2.61 µM), the “MIC GM (geometric mean of the MIC values)” value turned out to be 12.4 µg/mL, the “MIC CP 204” value came out at 15.6 µg/mL (≈ 5.22 µM) and the “MIC M 2” value worked out at 7.8 µg/mL (≈ 2.61 µM). Besides, in the data set with Pseudomonas aeruginosa (Mueller Hinton medium), the “MIC PA 14” value was 15.6 µg/mL (≈ 5.22 µM), the “MIC PAK” value amounted to 15.6 µg/mL (≈ 5.22 µM) and the “MIC WR 5” value came out at 15.6 µg/mL (≈ 5.22 µM). In addition, the Pseudomonas aeruginosa MICGM with Pseudomonas aeruginosa (geometric mean, 6 different isolates, 24 hours at 37° C.) amounted to 4.1 µM. Also, in data set [1], the “Hydrophobicity (retention time in RP-HPLC)” value is 76.8 min and 76.75 min.
